These results are taken from US5432200A, “Method for increasing urinary excretion of electrolytes” (priority 1993, dated 1995).

Where a name gives a salt, the structure may show the parent alone.

A short description of data set [1]: Physiological effects: urinary composition in two patients, five phases of study (Example 8, Table 1). The data set is classed as in vivo, human (patients). Conditions: for Urinary Ca / Urinary pH / Urinary Oxalate / Urinary K / Urinary Mg / Urinary Na / Urinary Citrate: mean of two patients, tablets/d: KCl 7, K citrate 10, Mg citrate 2.5, K-Mg citrate 7; for Urinary pH: placebo 6.26; for Urinary Oxalate: placebo 27; for Urinary K: placebo 31; for Urinary Mg: placebo 64; for Urinary Na: placebo 95; for Urinary Citrate: placebo 498.

For data set [2] the following is noted: human, in vivo, po.
Experimental: (§1) The study was performed with three normal subjects.
(§2) The subject underwent three phases of study. […] Urine was collected at frequent intervals for 24 hours after oral ingestion of each salt (at 8 a.m.).
(§3) Potassium bioavailability from potassium magnesium citrate was compared with that of potassium citrate. At each time period, the difference in urinary potassium following ingestion of potassium magnesium citrate (containing 49 meq potassium) or potassium citrate (containing 50 meq potassium) from that obtained at a corresponding time period following taking magnesium citrate (no potassium; therefore serving as control).
(§4) Magnesium bioavailability from potassium magnesium citrate was compared with that of magnesium citrate.
(§5) Citrate bioavailability from potassium magnesium citrate was compared with that of potassium citrate and magnesium citrate.
The conditions of data set [3]: in vivo; cited from earlier work.
For data set [4] the following is noted: cited from earlier work.
Data set [5] is described as follows: Bioavailability of potassium, magnesium and citrate in normal subjects: cumulative increment in urinary excretion after single oral dose (Example 7). As to conditions: urine 24 hours.
Experimental: as §1, §2, §3, §4, §5
For data set [6], the system named is hypercalciuric nephrolithiasis. As to conditions: cited from earlier work.
Data set [7] relates to nephrolithiasis. Conditions: cited from earlier work.
Where [8] appears, read: hypercalciuric patients with nephrolithiasis treated with thiazide.

Take `O=C([O-])CC(O)(CC(=O)[O-])C(=O)[O-].O=C([O-])CC(O)(CC(=O)[O-])C(=O)[O-].[K+].[K+].[K+].[K+].[Mg+2]` [potassium magnesium citrate, tetrapotassium monomagnesium dicitrate]: in data set [1], the “Urinary Ca” value came to 106 mg/day, the “Urinary pH” value amounted to 6.94, the “Urinary Oxalate” value was 23 mg/day and the “Urinary K” value is listed as 73 meq/d. Also, in data set [1], the “Urinary Mg” value turned out to be 116 mg/day, the “Urinary Na” value is recorded as 92 meq/d and the “Urinary Citrate” value came out at 968 mg/day. Further, in data set [1] (vs magnesium citrate), the “urinary pH and citrate compared to magnesium citrate” value was “higher values for urinary pH and citrate”. In data set [1] (vs placebo), the “urinary calcium and oxalate compared to placebo” value was “lower values for urinary calcium and oxalate”; the “urinary pH, magnesium, potassium and citrate compared to placebo” value was “higher values for urinary pH, magnesium, potassium and citrate”. In addition, in data set [1] (vs potassium chloride), the “urinary pH, magnesium and citrate compared to potassium chloride” value is “higher urinary pH, magnesium, and citrate”. The “citrate and magnesium excretion compared to potassium citrate” value in data set [1] (vs potassium citrate) was “greater citrate excretion as well as enhanced magnesium excretion”. Moreover, in data set [2], the “cumulative increment in urinary citrate (citrate bioavailability)” value was “much higher for potassium magnesium citrate than for the other two preparations”.
`[Cl-].[K+]` [potassium chloride]: in data set [1], the “Urinary Ca” value turned out to be 103 mg/day, the “Urinary pH” value came to 5.84, the “Urinary Oxalate” value was found to be 27 mg/day and the “Urinary K” value came out at 90 meq/d. In data set [1], the “Urinary Mg” value was 73 mg/day, the “Urinary Na” value amounted to 81 meq/d and the “Urinary Citrate” value came to 636 mg/day. The side effects entry in data set [3] was “arrhythmia and diarrhea”.
For `O=C(O)CC(O)(CC(=O)O)C(=O)O` [magnesium citrate], the “magnesiuric and citraturic effect compared with magnesium oxide” value in data set [4] (magnesium salts provided in small divided doses) is “equivalent magnesiuric and citraturic effect as magnesium oxide”. Besides, the “absorbability compared with magnesium oxide” value in data set [4] (vs magnesium oxide) was “more soluble and absorbable than magnesium oxide”. The “cumulative increment in urinary magnesium (magnesium bioavailability or absorption)” value in data set [5] (24.5 meq Mg (potassium magnesium citrate) vs 25 meq Mg (magnesium citrate), potassium citrate phase as control, FIG. 3) is recorded as “equivalent magnesium bioavailability between the two preparations”. In data set [1] (listed as Magnesium Citrate), the “Urinary Ca” value came to 137 mg/day, the “Urinary pH” value worked out at 6.13, the “Urinary Oxalate” value turned out to be 23 mg/day and the “Urinary K” value was found to be 38 meq/d. Further, in data set [1] (listed as Magnesium Citrate), the “Urinary Mg” value was found to be 113 mg/day, the “Urinary Na” value was found to be 82 meq/d and the “Urinary Citrate” value was determined as 718 mg/day.
As to `O=C(O)CC(O)(CC(=O)O)C(=O)O` [potassium citrate], the “cumulative increment in urinary potassium (potassium bioavailability)” value in data set [5] (49 meq K (potassium magnesium citrate) vs 50 meq K (potassium citrate), magnesium citrate phase as control, FIG. 2) was “equivalent between the two preparations”. Moreover, in data set [1] (listed as Potassium Citrate), the “Urinary Ca” value stood at 86 mg/day, the “Urinary pH” value stood at 6.93, the “Urinary Oxalate” value was found to be 27 mg/day and the “Urinary K” value was 80 meq/d. In data set [1] (listed as Potassium Citrate), the “Urinary Mg” value turned out to be 69 mg/day, the “Urinary Na” value is on record as 91 meq/d and the “Urinary Citrate” value was 821 mg/day. In data set [6] (setting [8]), the citrate excretion entry was “augments citrate excretion” and the “effect on thiazide-induced hypokalemia” value is given as “averts the development of hypokalemia”. For the same molecule, in data set [6] (patients who have relapsed on thiazide therapy), the recurrent stone formation result is “prevents recurrent stone formation”. Further, in data set [6] (potassium citrate therapy), the “effect on thiazide-induced magnesium depletion” value is on record as “does not avert thiazide-induced magnesium depletion”.
With `NS(=O)(=O)c1cc2c(cc1Cl)NCNS2(=O)=O` [thiazide], the “potassium and magnesium depletion” value in data set [7] (thiazide therapy, by provoking renal loss of potassium and magnesium) was “may cause hypokalemia and magnesium depletion”. For the same molecule, the relapse rate in data set [7] (use of thiazide alone) is 37.5-57.1%.
